Reference: patent US8076487B2, “Pyridone derivative and herbicide” (Kumiai Chemical Industry Co., Ltd., priority 2006, dated 2011)

Experiments:
Experiment in all cases: Test Example 1: herbicidal effect by soil application to paddy field
Type in all cases: in vivo
Settings in all cases: paddy field soil application; active ingredient 1,000 g per 1 hectare; wettable powder added dropwise to water surface the day after sowing; examined on the 21st day after application
[1] = tested on: early watergrass (Echinochloa oryzicola Vasing)
Description: (§1) Test Example 1 Test on Herbicidal Effect by Soil Application to Paddy Field In a 100 cm2 plastic pot, paddy field soil was filled. After puddling and leveling, seeds of early watergrass (Echinochloa oryzicola […] (Monochoria vaginalis ([…] Japanese bulrush (Scirpus juncoides Roxb.) were sown, and water was filled to be flooded to a water depth of 3 cm. […] Then, on the 21st day after the application to the plants grew in a greenhouse, the herbicidal effect was examined in accordance with a standard shown in Table 34. [table]

[2] = tested on: Japanese bulrush (Scirpus juncoides Roxb.)
Description: as §1

[3] = tested on: heartshape false pickerelweed (Monochoria vaginalis (Burm.f.) C.Presl)
Description: as §1

Structure (SMILES)	herbicidal effect, Echinochloa oryzicola Vasing [1]	herbicidal effect, Scirpus juncoides Roxb. [2]	herbicidal effect, Monochoria vaginalis (Burm. f.) C. Presl [3]
COc1ccccc1Cn1c(C(F)(F)F)ccc(C(=O)C2=C(O)CCCC2=O)c1=O [I-120]	5 (90% or more of herbicidal effect and crop phytotoxicity)	5 (90% or more of herbicidal effect and crop phytotoxicity)	5 (90% or more of herbicidal effect and crop phytotoxicity)
CCCS(=O)(=O)Oc1c(C(=O)c2ccc(Cl)n(C)c2=O)cnn1C [IV-242]	5 (90% or more of herbicidal effect and crop phytotoxicity)	5 (90% or more of herbicidal effect and crop phytotoxicity)	4 (70 to less than 90% of herbicidal effect and crop phytotoxicity)
CCOC(=O)Nn1c(C(F)(F)F)ccc(C(=O)C2=C(O)CCCC2=O)c1=O [I-192]	5 (90% or more of herbicidal effect and crop phytotoxicity)	5 (90% or more of herbicidal effect and crop phytotoxicity)	5 (90% or more of herbicidal effect and crop phytotoxicity)
CCCS(=O)(=O)Oc1c(C(=O)c2ccc(C(F)(F)F)n(-c3cccc([S+](C)[O-])c3)c2=O)cnn1C (stereo not drawn) [IV-73]	4 (70 to less than 90% of herbicidal effect and crop phytotoxicity)	4 (70 to less than 90% of herbicidal effect and crop phytotoxicity)	3 (50 to less than 70% of herbicidal effect and crop phytotoxicity)
Cn1c(C(F)(F)F)ccc(C(=O)C2=C(Sc3ccccc3)CCCC2=O)c1=O [II-8]	5 (90% or more of herbicidal effect and crop phytotoxicity)	5 (90% or more of herbicidal effect and crop phytotoxicity)	5 (90% or more of herbicidal effect and crop phytotoxicity)
Cn1ncc(C(=O)c2ccc(C(F)(F)F)n(CC3CCCO3)c2=O)c1OCc1ccc(C(F)(F)F)cc1 (stereo not drawn) [IV-137]	4 (70 to less than 90% of herbicidal effect and crop phytotoxicity)	3 (50 to less than 70% of herbicidal effect and crop phytotoxicity)	4 (70 to less than 90% of herbicidal effect and crop phytotoxicity)
COC1=C(C(=O)c2ccc(C(F)(F)F)n(C)c2=O)C(=O)CCC1C (stereo not drawn) [II-35]	5 (90% or more of herbicidal effect and crop phytotoxicity)	5 (90% or more of herbicidal effect and crop phytotoxicity)	5 (90% or more of herbicidal effect and crop phytotoxicity)
Cc1ccc(C(=O)C2=C(O)CCCC2=O)c(=O)n1-c1ccc(C(F)(F)F)cc1 [I-236]	5 (90% or more of herbicidal effect and crop phytotoxicity)	5 (90% or more of herbicidal effect and crop phytotoxicity)	5 (90% or more of herbicidal effect and crop phytotoxicity)
CCCS(=O)(=O)Oc1c(C(=O)c2ccc(C(F)(F)F)n(CCC[S+](C)[O-])c2=O)cnn1C (stereo not drawn) [IV-59]	4 (70 to less than 90% of herbicidal effect and crop phytotoxicity)	3 (50 to less than 70% of herbicidal effect and crop phytotoxicity)	4 (70 to less than 90% of herbicidal effect and crop phytotoxicity)
Cn1c(C(F)(F)F)ccc(C(=O)C2=C(Sc3ccccc3Cl)CCCC2=O)c1=O [II-11]	5 (90% or more of herbicidal effect and crop phytotoxicity)	5 (90% or more of herbicidal effect and crop phytotoxicity)	5 (90% or more of herbicidal effect and crop phytotoxicity)
Cn1c(C(F)(F)F)ccc(C(=O)C2=C(n3cccn3)CCCC2=O)c1=O [II-17]	5 (90% or more of herbicidal effect and crop phytotoxicity)	5 (90% or more of herbicidal effect and crop phytotoxicity)	5 (90% or more of herbicidal effect and crop phytotoxicity)
CCCCCCNn1c(C(F)(F)F)ccc(C(=O)C2=C(O)CCCC2=O)c1=O [I-166]	5 (90% or more of herbicidal effect and crop phytotoxicity)	5 (90% or more of herbicidal effect and crop phytotoxicity)	5 (90% or more of herbicidal effect and crop phytotoxicity)
CC(C)c1ccc(C(=O)C2=C(O)CCCC2=O)c(=O)n1-c1ccccc1 [I-232]	5 (90% or more of herbicidal effect and crop phytotoxicity)	5 (90% or more of herbicidal effect and crop phytotoxicity)	5 (90% or more of herbicidal effect and crop phytotoxicity)
Cc1cccc(COc2c(C(=O)c3ccc(C(F)(F)F)n(CC4CCCO4)c3=O)cnn2C)n1 (stereo not drawn) [IV-138]	5 (90% or more of herbicidal effect and crop phytotoxicity)	5 (90% or more of herbicidal effect and crop phytotoxicity)	5 (90% or more of herbicidal effect and crop phytotoxicity)
O=C1CCCC(O)=C1C(=O)c1ccc(C(F)(F)F)n(Cc2ccc([N+](=O)[O-])cc2)c1=O [I-117]	5 (90% or more of herbicidal effect and crop phytotoxicity)	5 (90% or more of herbicidal effect and crop phytotoxicity)	5 (90% or more of herbicidal effect and crop phytotoxicity)
CCCS(=O)(=O)Oc1c(C(=O)c2ccc(C(F)(F)F)n(CCCS(C)(=O)=O)c2=O)cnn1C [IV-61]	5 (90% or more of herbicidal effect and crop phytotoxicity)	5 (90% or more of herbicidal effect and crop phytotoxicity)	5 (90% or more of herbicidal effect and crop phytotoxicity)
CN(C(=O)OCc1ccccc1)n1c(C(F)(F)F)ccc(C(=O)C2=C(O)CCCC2=O)c1=O [I-197]	5 (90% or more of herbicidal effect and crop phytotoxicity)	5 (90% or more of herbicidal effect and crop phytotoxicity)	5 (90% or more of herbicidal effect and crop phytotoxicity)
Cc1ccc(S(=O)(=O)Oc2c(C(=O)c3ccc(C(F)(F)F)n(CC4CCCO4)c3=O)c(C)nn2C)cc1 (stereo not drawn) [IV-240]	5 (90% or more of herbicidal effect and crop phytotoxicity)	5 (90% or more of herbicidal effect and crop phytotoxicity)	5 (90% or more of herbicidal effect and crop phytotoxicity)
COCn1c(C(F)(F)F)ccc(C(=O)C2=C(O)CCCC2=O)c1=O [I-30]	3 (50 to less than 70% of herbicidal effect and crop phytotoxicity)	3 (50 to less than 70% of herbicidal effect and crop phytotoxicity)	5 (90% or more of herbicidal effect and crop phytotoxicity)
COc1ccc(Cn2c(C(F)(F)F)ccc(C(=O)C3=C(O)CCCC3=O)c2=O)cc1 [I-122]	5 (90% or more of herbicidal effect and crop phytotoxicity)	5 (90% or more of herbicidal effect and crop phytotoxicity)	5 (90% or more of herbicidal effect and crop phytotoxicity)
CCCS(=O)(=O)Oc1c(C(=O)c2ccc(C(F)(F)F)n(-c3ccc(Cl)c(OC)c3)c2=O)cnn1C [IV-91]	4 (70 to less than 90% of herbicidal effect and crop phytotoxicity)	5 (90% or more of herbicidal effect and crop phytotoxicity)	4 (70 to less than 90% of herbicidal effect and crop phytotoxicity)
C=CCn1ncc(C(=O)c2ccc(C(F)(F)F)n(C)c2=O)c1OCc1ccccc1 [IV-228]	5 (90% or more of herbicidal effect and crop phytotoxicity)	5 (90% or more of herbicidal effect and crop phytotoxicity)	5 (90% or more of herbicidal effect and crop phytotoxicity)
Cc1ccc(S(=O)(=O)Oc2c(C(=O)c3ccc(C(F)(F)F)n(C)c3=O)c(C)nn2C)cc1 [IV-236]	5 (90% or more of herbicidal effect and crop phytotoxicity)	5 (90% or more of herbicidal effect and crop phytotoxicity)	5 (90% or more of herbicidal effect and crop phytotoxicity)
CCCn1ncc(C(=O)c2ccc(C(F)(F)F)n(C)c2=O)c1O [IV-213]	5 (90% or more of herbicidal effect and crop phytotoxicity)	5 (90% or more of herbicidal effect and crop phytotoxicity)	5 (90% or more of herbicidal effect and crop phytotoxicity)
Cc1cc(C)c(C(=O)Oc2c(C(=O)c3ccc(C(F)(F)F)n(CC4CCCO4)c3=O)cnn2C)c(C)c1 (stereo not drawn) [IV-135]	5 (90% or more of herbicidal effect and crop phytotoxicity)	5 (90% or more of herbicidal effect and crop phytotoxicity)	5 (90% or more of herbicidal effect and crop phytotoxicity)
